Here are results for 22 compounds from ChEMBL document CHEMBL5543112, “Discovery of CBPD-268 as an Exceptionally Potent and Orally Efficacious CBP/p300 PROTAC Degrader Capable of Achieving Tumor Regression” (J Med Chem, 2024).

A value given as a limit tells only on which side of the number the result lay.

For data set [1], the target named is Protein cereblon/Histone acetyltransferase p300 (Homo sapiens, UniProt Q09472+Q96SW2). The data set is described as follows: PROTAC activity at p300/CRBN in human U2OS cells assessed as induction of p300 degradation incubated for 24 hrs by Nan-glo HiBiT lytic assay. It counts as cell-based. Background: The HiBiT peptide binds its large partner to form an active luciferase.

Data set [2] has as its target Protein cereblon/CREB-binding protein (Homo sapiens, UniProt Q92793+Q96SW2). The data set is described as follows: PROTAC activity at CBP/CRBN in human U2OS cells assessed as induction of CBP degradation incubated for 24 hrs by Nan-glo HiBiT lytic assay. It is filed as cell-based.
In data set [3] the target is Histone acetyltransferase p300 (Homo sapiens, UniProt Q09472). The data set is described as follows: Binding affinity to p300 (unknown origin) assessed as dissociation constant by ITC analysis. On the technique in general: In ITC the heat of successive injections is recorded.
The target of a further data set is CREB-binding protein (Homo sapiens, UniProt Q92793). The data set is described as follows: Binding affinity to CBP (unknown origin) assessed as dissociation constant by ITC analysis.
Data set [4] has as its target Bromodomain-containing protein 4 (Homo sapiens, UniProt O60885). The data set is described as follows: Binding affinity to BRD4 (unknown origin) assessed as dissociation constant by ITC analysis.
The next data set relates to VCaP. The data set is described as follows: Antiproliferative activity against human VCaP cells assessed as cell growth inhibition incubated for 4 days by celtiter-glo luminescent assay. To be noted: 96 h.
The test system of the next data set is CWR22R. The data set is described as follows: Antiproliferative activity against human 22Rv1 cells assessed as cell growth inhibition incubated for 4 days by celtiter-glo luminescent assay. To be noted: 22Rv1, 96 h.
Another data set deals with LNCaP. The data set is described as follows: Antiproliferative activity against human LNCaP cells assessed as cell growth inhibition incubated for 4 days by celtiter-glo luminescent assay. The following applies: 96 h.
Data set [5] in a line: Drug concentration in rat plasma at 3 mg/kg, po measured at 6 hrs by LC-MS/MS analysis. It is filed as ADME, organism-based.
Data set [6] is described as follows: Drug concentration in rat plasma at 3 mg/kg, po measured at 30 mins by LC-MS/MS analysis. It is filed as ADME, organism-based.
A short description of data set [7]: Drug concentration in rat plasma at 3 mg/kg, po measured at 2 hrs by LC-MS/MS analysis. It is filed as ADME, organism-based.
The nature of data set [8]: Half life in Sprague-Dawley rat at 1 mg/kg, iv measured upto 24 hrs by LC-MS/MS analysis. The following applies: in vivo. It is filed as ADME, organism-based.
Data set [9] in a line: Drug concentration in rat plasma at 3 mg/kg, po measured at 15 mins by LC-MS/MS analysis. It is filed as ADME, organism-based.
The nature of data set [10]: Metabolic stability in mouse liver microsome assessed as half life measured upto 60 mins in presence of NADPH by LC-MS/MS analysis. It is filed as ADME. To be noted: liver microsomes. In general terms: Liver microsomes are a subcellular fraction often used to study metabolism.
The nature of data set [11]: Drug concentration in rat plasma at 3 mg/kg, po measured at 5 mins by LC-MS/MS analysis. It counts as ADME, organism-based.
Data set [12] in a line: Drug concentration in rat plasma at 3 mg/kg, po measured at 1 hr by LC-MS/MS analysis. It is filed as ADME, organism-based.
Data set [13] is described as follows: AUC (0 to t) in Sprague-Dawley rat at 1 mg/kg, iv measured upto 24 hrs by LC-MS/MS analysis. It is filed as ADME, organism-based. The following applies: in vivo.
Data set [14] in a line: Drug concentration in rat plasma at 3 mg/kg, po measured at 4 hrs by LC-MS/MS analysis. It is filed as ADME, organism-based.
A short description of data set [15]: Volume of distribution at steady state in Sprague-Dawley rat at 1 mg/kg, iv measured upto 24 hrs by LC-MS/MS analysis. It is filed as ADME, organism-based. The following applies: in vivo.
Data set [16] is described as follows: Metabolic stability in rat liver microsome assessed as half life measured upto 60 mins in presence of NADPH by LC-MS/MS analysis. It counts as ADME. The following applies: liver microsomes.
Data set [17] in a line: Metabolic stability in human liver microsome assessed as half life measured upto 60 mins in presence of NADPH by LC-MS/MS analysis. It counts as ADME. To be noted: liver microsomes.
The nature of data set [18]: Drug concentration in rat plasma at 3 mg/kg, po measured at 24 hrs by LC-MS/MS analysis. It is filed as ADME, organism-based.

Protein cereblon/Histone acetyltransferase p300, sequence (Q09472 whole entry): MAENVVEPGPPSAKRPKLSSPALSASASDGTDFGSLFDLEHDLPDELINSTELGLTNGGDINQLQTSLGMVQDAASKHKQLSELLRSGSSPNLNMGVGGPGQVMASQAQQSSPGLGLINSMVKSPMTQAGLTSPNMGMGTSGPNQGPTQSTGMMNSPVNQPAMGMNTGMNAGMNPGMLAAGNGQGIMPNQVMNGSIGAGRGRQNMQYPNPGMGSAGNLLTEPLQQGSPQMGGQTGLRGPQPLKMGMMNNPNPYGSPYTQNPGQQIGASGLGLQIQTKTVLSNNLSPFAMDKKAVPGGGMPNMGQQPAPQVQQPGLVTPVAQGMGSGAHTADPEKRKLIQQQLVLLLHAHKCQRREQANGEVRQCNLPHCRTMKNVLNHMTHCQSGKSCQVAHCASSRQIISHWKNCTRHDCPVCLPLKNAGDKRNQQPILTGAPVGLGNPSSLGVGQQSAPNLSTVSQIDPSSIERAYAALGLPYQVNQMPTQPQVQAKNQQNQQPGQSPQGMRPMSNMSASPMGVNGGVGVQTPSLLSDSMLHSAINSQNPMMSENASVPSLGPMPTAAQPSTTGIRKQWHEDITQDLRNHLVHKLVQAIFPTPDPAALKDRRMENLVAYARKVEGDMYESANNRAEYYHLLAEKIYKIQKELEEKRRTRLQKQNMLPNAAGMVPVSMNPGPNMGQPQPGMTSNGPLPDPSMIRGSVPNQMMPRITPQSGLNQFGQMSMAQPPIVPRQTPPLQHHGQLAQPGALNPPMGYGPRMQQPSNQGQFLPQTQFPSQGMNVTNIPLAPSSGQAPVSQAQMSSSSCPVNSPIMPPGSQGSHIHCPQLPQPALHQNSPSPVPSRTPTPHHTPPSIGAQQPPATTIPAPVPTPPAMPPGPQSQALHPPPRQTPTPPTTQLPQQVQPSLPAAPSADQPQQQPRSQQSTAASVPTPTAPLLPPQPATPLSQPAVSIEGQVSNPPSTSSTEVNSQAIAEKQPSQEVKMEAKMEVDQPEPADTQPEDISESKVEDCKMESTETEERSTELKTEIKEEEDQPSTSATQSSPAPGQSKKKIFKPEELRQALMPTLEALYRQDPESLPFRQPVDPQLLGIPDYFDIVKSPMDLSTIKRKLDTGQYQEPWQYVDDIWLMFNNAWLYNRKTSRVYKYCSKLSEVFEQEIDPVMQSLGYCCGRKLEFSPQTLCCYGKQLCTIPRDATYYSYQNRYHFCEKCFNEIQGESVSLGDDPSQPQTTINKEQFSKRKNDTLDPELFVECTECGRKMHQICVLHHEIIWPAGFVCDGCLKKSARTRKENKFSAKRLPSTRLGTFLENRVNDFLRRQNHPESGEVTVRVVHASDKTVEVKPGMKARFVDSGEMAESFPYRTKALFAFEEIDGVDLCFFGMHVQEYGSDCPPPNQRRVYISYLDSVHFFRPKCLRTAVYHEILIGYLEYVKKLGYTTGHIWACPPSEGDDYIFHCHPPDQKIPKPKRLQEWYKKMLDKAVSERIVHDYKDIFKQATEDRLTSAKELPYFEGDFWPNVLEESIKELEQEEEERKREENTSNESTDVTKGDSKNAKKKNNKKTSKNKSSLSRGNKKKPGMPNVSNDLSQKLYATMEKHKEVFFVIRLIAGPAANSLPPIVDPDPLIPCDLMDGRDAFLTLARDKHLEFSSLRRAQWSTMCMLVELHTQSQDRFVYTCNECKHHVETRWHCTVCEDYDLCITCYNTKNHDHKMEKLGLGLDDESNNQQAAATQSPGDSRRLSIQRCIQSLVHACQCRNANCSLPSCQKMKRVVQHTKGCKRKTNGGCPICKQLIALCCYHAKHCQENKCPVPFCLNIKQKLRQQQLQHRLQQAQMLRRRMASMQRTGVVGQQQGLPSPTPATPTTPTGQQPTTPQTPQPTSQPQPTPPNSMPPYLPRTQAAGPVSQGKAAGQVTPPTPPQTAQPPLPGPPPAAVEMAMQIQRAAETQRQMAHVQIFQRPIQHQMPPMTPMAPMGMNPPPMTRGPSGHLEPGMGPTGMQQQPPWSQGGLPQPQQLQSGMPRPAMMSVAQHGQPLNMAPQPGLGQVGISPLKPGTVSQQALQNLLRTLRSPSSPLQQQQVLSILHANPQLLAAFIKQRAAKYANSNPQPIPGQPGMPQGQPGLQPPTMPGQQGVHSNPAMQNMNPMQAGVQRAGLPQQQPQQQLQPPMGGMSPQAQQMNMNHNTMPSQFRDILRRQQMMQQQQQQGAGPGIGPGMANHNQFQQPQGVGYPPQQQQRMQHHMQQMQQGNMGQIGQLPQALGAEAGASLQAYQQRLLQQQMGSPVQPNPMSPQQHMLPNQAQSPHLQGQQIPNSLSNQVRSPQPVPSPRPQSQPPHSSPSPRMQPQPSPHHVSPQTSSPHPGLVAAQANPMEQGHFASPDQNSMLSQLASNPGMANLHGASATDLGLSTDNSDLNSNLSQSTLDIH
Protein cereblon/Histone acetyltransferase p300, sequence (Q96SW2 whole entry): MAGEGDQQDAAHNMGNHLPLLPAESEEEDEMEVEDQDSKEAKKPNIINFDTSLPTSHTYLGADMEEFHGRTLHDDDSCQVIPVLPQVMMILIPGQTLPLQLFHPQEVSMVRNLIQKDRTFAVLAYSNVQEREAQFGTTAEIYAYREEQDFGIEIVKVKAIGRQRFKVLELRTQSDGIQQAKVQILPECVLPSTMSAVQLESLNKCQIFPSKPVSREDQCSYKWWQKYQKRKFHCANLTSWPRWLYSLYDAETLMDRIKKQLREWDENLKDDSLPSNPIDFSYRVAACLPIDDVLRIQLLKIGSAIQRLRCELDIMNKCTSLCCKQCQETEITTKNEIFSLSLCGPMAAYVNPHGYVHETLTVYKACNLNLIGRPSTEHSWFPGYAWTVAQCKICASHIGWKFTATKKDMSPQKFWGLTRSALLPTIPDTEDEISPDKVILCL
Histone acetyltransferase p300, sequence (Q09472 whole entry): as the sequence (Q09472 whole entry) above

Consider `CC(=O)N1CCc2c(c(N3CCCc4cc(-c5cnn(C)c5)c(C(F)F)cc43)nn2C2CCN(C(=O)CCCCCN3Cc4cc5c(cc4C3)C(=O)N(C3CCC(=O)NC3=O)C5=O)CC2)C1` (configuration not stated), for which the results for the DC50 in data set [1] and in [2] were 108 nM and 362 nM, respectively.

For `CC(=O)N1CCc2c(c(N3CCCc4cc(C)c(C(F)F)cc43)nn2C2CCN(C(=O)CN3Cc4cc5c(cc4C3)C(=O)N(C3CCC(=O)NC3=O)C5=O)CC2)C1` (configuration not stated), the DC50 was determined as 9.6 nM in data set [1] and 55 nM in data set [2].

In the case of `CC(=O)N1CCc2c(c(N3CCCc4cc(-c5cnn(C)c5)c(C(F)F)cc43)nn2C2CCOCC2)C1`, the dissociation constant (Kd) came to 1.3 nM in data set [3], 1.1 nM at CREB-binding protein and 200 nM in data set [4]. Further, the IC50 in the data set with VCaP, in the data set on CWR22R and with LNCaP was > 1000 nM throughout.

For `CC(=O)N1CCc2c(c(N3CCCc4cc(-c5cnn(C)c5)c(C(F)F)cc43)nn2C2CCN(C(=O)CCCCN3Cc4cc5c(cc4C3)C(=O)N(C3CCC(=O)NC3=O)C5=O)CC2)C1` (configuration not stated), the half-maximal degradation concentration (DC50) in [1] stood at 46 nM; in data set [2] it was 168 nM.

Consider `CC(=O)N1CCc2c(c(N3CCCc4cc(-c5cnn(C)c5)c(C(F)F)cc43)nn2C2CCN(CC(=O)N3Cc4cc5c(cc4C3)C(=O)N(C3CCC(=O)NC3=O)C5=O)CC2)C1` (configuration not stated), for which the DC50 in data set [1] and in data set [2] was > 1000 nM in each case.

In the case of `CO[C@H]1CC[C@H](n2c([C@@H]3CCCC(=O)N3c3ccc(F)c(F)c3)nc3cc(-c4c(C)noc4C)ccc32)CC1` [INOBRODIB], in the data set with VCaP, the 50% inhibitory concentration (IC50) is 195 nM.

Take `CC(=O)N1CCc2c(c(N3CCCc4cc(Br)c(C(F)F)cc43)nn2C2CCN(C(=O)CN3Cc4cc5c(cc4C3)C(=O)N(C3CCC(=O)NC3=O)C5=O)CC2)C1` (configuration not stated): the DC50 amounted to 17 nM in data set [1] and 64 nM in data set [2].

For `CC(=O)N1CCc2c(c(N3CCCc4cc(-c5cnn(C)c5)c(C(F)F)cc43)nn2C2CCN(C(=O)CCCN3Cc4cc5c(cc4C3)C(=O)N(C3CCC(=O)NC3=O)C5=O)CC2)C1` (configuration not stated), the DC50 in data set [1] was found to be 105 nM; in data set [2] it was 368 nM.

Take `CC(=O)N1CCc2c(c(N3CCCc4cc(-c5cnn(C)c5)c(C(F)F)cc43)nn2C2CCN(C(=O)N3Cc4cc5c(cc4C3)C(=O)N(C3CCC(=O)NC3=O)C5=O)CC2)C1` (configuration not stated): the DC50 in [1] and in data set [2] was > 1000 nM in each case.

In the case of `CC(=O)N1CCc2c(c(N3CCCc4cc(-c5ccccc5)c(C(F)F)cc43)nn2C2CCN(C(=O)CN3Cc4cc5c(cc4C3)C(=O)N(C3CCC(=O)NC3=O)C5=O)CC2)C1` (configuration not stated), the DC50 in data set [1] was determined as 23 nM; in [2] it was 31 nM.

As for `N#Cc1ccc(O[C@H]2CC[C@H](NC(=O)c3ccc(N4CCC(CN5CCN(c6cc7c(cc6F)C(=O)N(C6CCC(=O)NC6=O)C7=O)CC5)CC4)nn3)CC2)cc1Cl` (some centres not stated) [BAVDEGALUTAMIDE], the IC50 with VCaP is 125 nM.

On to `CC(=O)N1CCc2c(c(N3CCCc4cc(-c5cccs5)c(C(F)F)cc43)nn2C2CCN(C(=O)CN3Cc4cc5c(cc4C3)C(=O)N(C3CCC(=O)NC3=O)C5=O)CC2)C1` (configuration not stated), for which the half-maximal degradation concentration (DC50) in data set [1] was determined as 33 nM; in [2], 24 nM.

Take `CNC(=O)c1ccc(N2C(=S)N(c3ccc(C#N)c(C(F)(F)F)c3)C(=O)C2(C)C)cc1F` [ENZALUTAMIDE]: the IC50 in the data set on VCaP and with CWR22R was > 1000 nM each time.

Regarding `CC(=O)N1CCc2c(c(N3CCCc4ccc(C(F)F)cc43)nn2C2CCN(C(=O)CN3Cc4cc5c(cc4C3)C(=O)N(C3CCC(=O)NC3=O)C5=O)CC2)C1` (configuration not stated), the concentration at 6 h in [5] turned out to be 0.9 ng/mL. This compound gave a concentration at 0.5 h in [6] of 0.4 ng/mL. Further, the concentration at 2 h in [7] worked out at 0.4 ng/mL. Moreover, the t1/2 in [8] was determined as 1.1 h. In data set [9], the concentration at 0.25 h came out at 0.5 ng/mL. Further, the half-life in data set [10], in data set [16] and in data set [17] was > 1 h in each case. In data set [11], this compound yielded a concentration at 5 min of 1 ng/mL. The same compound had a concentration at 1 h in data set [12] of 0.3 ng/mL. Also, the exposure AUC(0-t) at 24 h in data set [13] was found to be 88.7 ng·h/mL. Further, in data set [14], the concentration at 4 h worked out at 0.7 ng/mL. Further, the results for the DC50 in data set [1] and in data set [2] were 204 nM and 519 nM, respectively. Besides, the volume of distribution (Vdss) in data set [15] was 1.7 L/kg.

Consider `CC(=O)N1CCc2c(c(N3CCCc4cc(-c5cnn(C)c5)c(C(F)F)cc43)nn2C2CCN(C(=O)CCN3Cc4cc5c(cc4C3)C(=O)N(C3CCC(=O)NC3=O)C5=O)CC2)C1` (configuration not stated), for which the DC50 in data set [1] and in data set [2] was > 1000 nM in each case.

In turn, `CC(=O)N1CCc2c(c(N3CCCc4cc(-c5cnn(C)c5)c(C(F)F)cc43)nn2C2CCN(C(=O)CN3Cc4cc5c(cc4C3)C(=O)N(C3CCC(=O)NC3=O)C5=O)CC2)C1` (configuration not stated) showed a concentration at 24 h in data set [18] of 4.6 ng/mL. Moreover, in data set [8], the t1/2 came to 1.3 h. Moreover, in data set [9], the concentration at 0.25 h turned out to be 1.9 ng/mL. For the same compound, the half-life was 0.317 h in data set [10], > 1 h in data set [16] and 0.163 h in [17]. The concentration at 5 min in [11] came to 3.7 ng/mL. This compound also yielded an AUC(0-t) at 24 h in data set [13] of 166 ng·h/mL. Further, in data set [15], the Vdss is 6.3 L/kg.

As to `CCc1cc2c(cc1C(F)F)N(c1nn(C3CCN(C(=O)CN4Cc5cc6c(cc5C4)C(=O)N(C4CCC(=O)NC4=O)C6=O)CC3)c3c1CN(C(C)=O)CC3)CCC2` (configuration not stated), the results for the DC50 in [1] and in data set [2] were 18 nM and 89 nM, respectively.

Take `CC(=O)N1CCc2c(c(N3CCCc4cc(C5CC5)c(C(F)F)cc43)nn2C2CCN(C(=O)CN3Cc4cc5c(cc4C3)C(=O)N(C3CCC(=O)NC3=O)C5=O)CC2)C1` (configuration not stated): the DC50 in [1] is 29 nM; in data set [2], 52 nM.

Take `CNC(=O)N1CCc2c(c(N3CCCc4cc(-c5cnn(C)c5)c(C(F)F)cc43)nn2C2CCOCC2)C1`: the figures for the Kd (in [3]; on CREB-binding protein; in [4]) were 1.2 nM, 0.9 nM and 4.6 nM, respectively.

As to `CC(=O)N1CCc2c(c(N3CCCc4cc(C5CCCCC5)c(C(F)F)cc43)nn2C2CCN(C(=O)CN3Cc4cc5c(cc4C3)C(=O)N(C3CCC(=O)NC3=O)C5=O)CC2)C1` (configuration not stated), the DC50 in [1] came out at 39 nM; in data set [2], 37 nM.

In the case of `CC(=O)N1CCc2c(c(N3CCCc4cc(C(C)C)c(C(F)F)cc43)nn2C2CCN(C(=O)CN3Cc4cc5c(cc4C3)C(=O)N(C3CCC(=O)NC3=O)C5=O)CC2)C1` (configuration not stated), the DC50 in data set [1] is 40 nM; in [2], 57 nM.

`CC(=O)N1CCc2c(c(N3CCCc4cc(-c5ccc(F)cc5)c(C(F)F)cc43)nn2C2CCN(C(=O)CN3Cc4cc5c(cc4C3)C(=O)N(C3CCC(=O)NC3=O)C5=O)CC2)C1` (configuration not stated): the DC50 in [1] was 41 nM; in data set [2], 36 nM.

Usually DC50 stands for the concentration giving 50% degradation. One may read the Kd as the free concentration of one partner at which half of the binding sites on the other are occupied at equilibrium, for simple one-to-one binding. As a reminder, the IC50 is the concentration needed to halve the response being measured. The term half-life denotes the time needed for the level to fall by half in the phase considered. As a reminder, the AUC(0-t) is exposure summed from dosing to a finite time, without extrapolation to infinity. Low readings indicate low exposure, high ones high exposure. One may read the Vdss as a proportionality between amount in the body and measured concentration, not a real space. Higher therefore signals wide distribution into tissue.
